What all share (test): In Vitro Anti-Bacterial Activity Test (MIC, agar dilution)
Common to all, as to format: cell-based

Assay [1] deals with Enterobacter cloacae 1321E. The following applies: Enterobacter cloacae 1321E; Muller-Hinton agar, 37° C., 18 hours; read-out: MIC. Here is the method: (§1) The above in vitro antibacterial activity test was carried out in accordance with the agar culture medium dilution method (Hoechst 345) by using Muller-Hinton agar medium to determine the minimum inhibitory concentration (MIC).
(§2) The strains having 10^7 C.F.U./ml were inoculated on the culture medium, and the growth of the strains was observed after incubating them at 37° C. for 18 hours, in which ciprofloxacin was used as a control antibacterial agent. In this test, twenty typical strains were used.

In a further assay the test system is Enterobacter cloacae P99. The following applies: Enterobacter cloacae, P99, 18 h. How it is done:
as §1, §2

The next assay concerns Escherichia coli 078. Particulars: Escherichia coli 078; Muller-Hinton agar, 37° C., 18 hours; read-out: MIC. Here is the method:
as §1, §2

Another assay concerns Escherichia coli 1507E. The following applies: Muller-Hinton agar, 37° C. Here is the method:
as §1, §2

A further assay deals with Escherichia coli DC0. Particulars: Muller-Hinton agar, 37° C., 18 hours, read-out: MIC. How it is done: as §1, §2
A further assay concerns Escherichia coli DC2. The following applies: Escherichia coli, DC2, 18 h. How it is done:
as §1, §2

Another assay deals with Escherichia coli TEM. The following applies: Escherichia coli, 18 h, Muller-Hinton agar, 37° C. How it is done:
as §1, §2

For assay [2], the system named is Klebsiella aerogenes 1522E. The following applies: Klebsiella aerogenes, 1522E, 18 h, Klebsiella aerogenes 1522E; Muller-Hinton agar, 37° C., 18 hours; read-out: MIC. Here is the method: as §1, §2
Another assay has as its system Klebsiella oxytoca 1082E. The following applies: Klebsiella oxytoca 1082E; Muller-Hinton agar, 37° C., 18 hours; read-out: MIC. Here is the method: as §1, §2
Assay [3] has as its system Pseudomonas aeruginosa 1592E. Particulars: Muller-Hinton agar, 37° C., 18 hours, read-out: MIC. Here is the method: as §1, §2
Assay [4] relates to Pseudomonas aeruginosa 1771M. The following applies: Pseudomonas aeruginosa, 1771M, 18 h, Muller-Hinton agar, 37° C. Here is the method: as §1, §2
Assay [5] has as its system Pseudomonas aeruginosa 1771. Particulars: Pseudomonas aeruginosa 1771; Muller-Hinton agar, 37° C., 18 hours; read-out: MIC. Here is the method:
as §1, §2

In assay [6] the test system is Pseudomonas aeruginosa 9027. The following applies: Muller-Hinton agar, 37° C., 18 hours, read-out: MIC. How it is done:
as §1, §2

In another assay the test system is Salmonella typhimurium. Particulars: Salmonella enterica; Salmonella typhimurium; Muller-Hinton agar, 37° C., 18 hours; read-out: MIC. How it is done:
as §1, §2

Assay [7] concerns Staphylococcus aureus 285. Particulars: Staphylococcus aureus, 285, 18 h, Staphylococcus aureus 285; Muller-Hinton agar, 37° C., 18 hours; read-out: MIC. How it is done:
as §1, §2

Assay [8] deals with Staphylococcus aureus 503. Particulars: Staphylococcus aureus 503; Muller-Hinton agar, 37° C., 18 hours; read-out: MIC. Here is the method:
as §1, §2

The subject of assay [9] is Staphylococcus aureus SG511. The following applies: Staphylococcus aureus SG511; Muller-Hinton agar, 37° C., 18 hours; read-out: MIC. How it is done: as §1, §2
In assay [10] the test system is Streptococcus faecium MD8b. Particulars: Enterococcus faecium, Muller-Hinton agar, 37° C., 18 hours, read-out: MIC. Here is the method: as §1, §2
Assay [11] deals with Streptococcus pyogenes 308A. The following applies: Muller-Hinton agar, 37° C., 18 hours, read-out: MIC. How it is done:
as §1, §2

Assay [12] concerns Streptococcus pyogenes 77A. Here is the method: as §1, §2
Setting [13] is: Streptococcus pyogenes 77A, Muller-Hinton agar, 37° C., 18 hours, read-out: MIC.

Counter-ions that a name gives are not always drawn. Like-named read-outs stand apart in the source and are kept apart here.

On to `CCOC(=O)CC(=O)c1cn(C2CC2)c2cc(N3CCNCC3)c(F)cc2c1=O` [Example 19, 1-cyclopropyl-6-fluoro-7-(piperazin-1-yl)-3-(2-ethoxycarbonylacetyl)-1,4-dihydro-4-oxoquinoline hydrochloride], for which the MIC was determined as 0.013 µg/mL in assay [1]; 0.013 µg/mL with Enterobacter cloacae P99; 0.004 µg/mL in the assay on Escherichia coli 078; 0.013 µg/mL against Escherichia coli 1507E (Escherichia coli, 1507E, 18 h); 0.391 µg/mL in the assay with Escherichia coli DC0; 0.391 µg/mL in the assay on Escherichia coli DC2. The MIC against Escherichia coli TEM amounted to 0.195 µg/mL; in assay [2], 0.049 µg/mL; in the assay with Klebsiella oxytoca 1082E, 0.013 µg/mL; in assay [3], 1.56 µg/mL; in assay [4], 1.56 µg/mL; in [5], 0.781 µg/mL. Besides, the MIC in assay [6] was found to be 0.781 µg/mL; with Salmonella typhimurium, 0.391 µg/mL; in assay [7], 1.56 µg/mL; in assay [8], 0.781 µg/mL; in [9] it was 0.391 µg/mL; in assay [10] it was 0.781 µg/mL. In addition, the MIC in assay [11] was 3.12 µg/mL; in assay [12] (setting [13]), 1.56 µg/mL.
Take `CCOC(=O)C(C(=O)OCC)C(=O)c1cn(C2CC2)c2c(F)c(N3CCC(N)C3)c(F)cc2c1=O` (centres unmarked) [Example 20, 1-cyclopropyl-6,8-difluoro-7-(3-aminopyrrolidin-1-yl)-3-(2,2-diethoxycarbonylacetyl)-1,4-dihydro-4-oxoquinoline hydrochloride]: the MIC is below 0.002 µg/mL in [1]; below 0.002 µg/mL against Enterobacter cloacae P99; below 0.002 µg/mL in the assay on Escherichia coli 078; 0.007 µg/mL with Escherichia coli 1507E (Escherichia coli, 1507E, 18 h); 0.098 µg/mL in the assay on Escherichia coli DC0; 0.013 µg/mL in the assay on Escherichia coli DC2. In addition, the MIC is below 0.002 µg/mL against Escherichia coli TEM; 0.025 µg/mL in [2]; below 0.002 µg/mL in the assay on Klebsiella oxytoca 1082E; 0.195 µg/mL in assay [3]; 0.098 µg/mL in assay [4]; 0.195 µg/mL in [5]. Besides, the MIC in assay [6] was 0.391 µg/mL; in the assay with Salmonella typhimurium, below 0.002 µg/mL; in assay [7], 0.013 µg/mL; in [8], 0.025 µg/mL; in assay [9], 0.013 µg/mL; in assay [10], 0.098 µg/mL. In addition, the MIC in assay [11] came out at 0.391 µg/mL; in assay [12] (setting [13]), 0.098 µg/mL.
Regarding `CCOC(=O)CC(=O)c1cn(C2CC2)c2c(F)c(N3CCC(N)C3)c(F)cc2c1=O` (centres unmarked) [Example 21, 1-cyclopropyl-6,8-difluoro-7-(3-aminopyrrolidin-1-yl)-3-(2-ethoxycarbonylacetyl)-1,4-dihydro-4-oxoquinoline hydrochloride], the MIC was below 0.002 µg/mL in [1]; 0.007 µg/mL in the assay with Enterobacter cloacae P99; 0.004 µg/mL with Escherichia coli 078; 0.013 µg/mL with Escherichia coli 1507E (Escherichia coli, 1507E, 18 h); 0.098 µg/mL with Escherichia coli DC0; 0.049 µg/mL against Escherichia coli DC2. Further, the MIC against Escherichia coli TEM was found to be 0.013 µg/mL; in assay [2], 0.025 µg/mL; with Klebsiella oxytoca 1082E it was 0.004 µg/mL; in assay [3] it was 0.391 µg/mL; in assay [4], 0.098 µg/mL; in [5], 0.195 µg/mL. For the same compound, the MIC in assay [6] came out at 0.391 µg/mL; with Salmonella typhimurium it was 0.013 µg/mL; in assay [7] it was 0.049 µg/mL; in assay [8], 0.049 µg/mL; in [9], 0.049 µg/mL; in assay [10] it was 0.781 µg/mL. Further, the MIC in assay [11] was determined as 0.781 µg/mL; in assay [12] (setting [13]) it was 0.391 µg/mL.
Take `CCOC(=O)C(C(=O)OCC)C(=O)c1cn(C2CC2)c2c(Cl)c(N3CCC(N)C3)c(F)cc2c1=O` (centres unmarked) [Example 22, 1-cyclopropyl-6-fluoro-8-chloro-7-(3-aminopyrrolidin-1-yl)-3-(2,2-diethoxycarbonylacetyl)-1,4-dihydro-4-oxoquinoline hydrochloride]: the MIC in assay [1] is below 0.002 µg/mL; against Enterobacter cloacae P99, 0.004 µg/mL; in the assay with Escherichia coli 078, 0.004 µg/mL; with Escherichia coli 1507E (18 hours, read-out: MIC) it was below 0.002 µg/mL; with Escherichia coli DC0 it was 0.098 µg/mL; with Escherichia coli DC2 it was 0.025 µg/mL. The MIC in the assay with Escherichia coli TEM is below 0.002 µg/mL; in assay [2] it was 0.025 µg/mL; in the assay on Klebsiella oxytoca 1082E it was below 0.002 µg/mL; in [3], 0.781 µg/mL; in assay [4] it was 0.195 µg/mL; in assay [5], 0.781 µg/mL. Moreover, the minimum inhibitory concentration (MIC) in assay [6] was determined as 0.781 µg/mL; in the assay on Salmonella typhimurium it was 0.004 µg/mL; in assay [7], 0.098 µg/mL; in [8] it was 0.049 µg/mL; in assay [9], 0.049 µg/mL; in assay [10], 0.391 µg/mL. Moreover, the MIC in [11] amounted to 0.391 µg/mL; in [12] (Streptococcus pyogenes, 77A, 18 h), 0.781 µg/mL.
Regarding `CCOC(=O)C(C(=O)OCC)C(=O)c1cn(C2CC2)c2c(Cl)c(N3CC[C@@H](N)C3)c(F)cc2c1=O` [Example 23, 1-cyclopropyl-6-fluoro-8-chloro-7-(3-3R-aminopyrrolidin-1-yl)-3-(2,2-diethoxycarbonylacetyl)-1,4-dihydro-4-oxoquinoline hydrochloride], the MIC was below 0.002 µg/mL in [1]; 0.004 µg/mL in the assay with Enterobacter cloacae P99; below 0.002 µg/mL in the assay with Escherichia coli 078; 0.013 µg/mL in the assay on Escherichia coli 1507E (Escherichia coli, 1507E, 18 h); 0.195 µg/mL in the assay with Escherichia coli DC0; 0.049 µg/mL against Escherichia coli DC2. The minimal inhibitory concentration (MIC) is 0.004 µg/mL in the assay on Escherichia coli TEM; 0.025 µg/mL in assay [2]; below 0.002 µg/mL in the assay with Klebsiella oxytoca 1082E; 0.391 µg/mL in [3]; 0.098 µg/mL in assay [4]; 0.391 µg/mL in assay [5]. Further, the MIC in [6] worked out at 0.781 µg/mL; in the assay with Salmonella typhimurium, 0.004 µg/mL; in assay [7] it was 0.049 µg/mL; in [8] it was 0.049 µg/mL; in [9], 0.049 µg/mL; in assay [10], 0.195 µg/mL. For the same compound, the MIC in assay [11] worked out at 0.781 µg/mL; in assay [12] (setting [13]), 0.195 µg/mL.
As for `CCOC(=O)C(C(=O)OCC)C(=O)c1cn(C2CC2)c2c(Cl)c(N3CC[C@H](N)C3)c(F)cc2c1=O` [Example 24, 1-cyclopropyl-6-fluoro-8-chloro-7-(3-3S-aminopyrrolidin-1-yl)-3-(2,2-diethoxycarbonylacetyl)-1,4-dihydro-4-oxoquinoline hydrochloride], the MIC in assay [1] is below 0.002 µg/mL; with Enterobacter cloacae P99, below 0.002 µg/mL; in the assay on Escherichia coli 078 it was below 0.002 µg/mL; with Escherichia coli 1507E (18 hours, read-out: MIC), below 0.002 µg/mL; in the assay with Escherichia coli DC0, 0.098 µg/mL; against Escherichia coli DC2, 0.025 µg/mL. For the same compound, the MIC in the assay on Escherichia coli TEM was below 0.002 µg/mL; in assay [2], 0.013 µg/mL; in the assay on Klebsiella oxytoca 1082E, below 0.002 µg/mL; in [3], 0.391 µg/mL; in [4] it was 0.049 µg/mL; in assay [5], 0.391 µg/mL. Further, the MIC was 0.391 µg/mL in assay [6]; below 0.002 µg/mL in the assay with Salmonella typhimurium; 0.049 µg/mL in assay [7]; 0.049 µg/mL in assay [8]; 0.049 µg/mL in assay [9]; 0.391 µg/mL in assay [10]. Besides, the MIC in assay [11] and in assay [12] (setting [13]) was 0.391 µg/mL throughout.
Consider `CCOC(=O)CC(=O)c1cn(C2CC2)c2c(Cl)c(N3CCC(N)C3)c(F)cc2c1=O` (centres unmarked) [Example 25, 1-cyclopropyl-6-fluoro-8-chloro-7-(3-aminopyrrolidin-1-yl)-3-(2-ethoxycarbonylacetyl)-1,4-dihydro-4-oxoquinoline hydrochloride], for which the MIC is below 0.002 µg/mL in assay [1]; 0.004 µg/mL in the assay with Enterobacter cloacae P99; below 0.002 µg/mL in the assay with Escherichia coli 078; 0.025 µg/mL against Escherichia coli 1507E (Escherichia coli, 1507E, 18 h); 0.098 µg/mL with Escherichia coli DC0; 0.025 µg/mL in the assay with Escherichia coli DC2. In addition, the MIC is below 0.002 µg/mL in the assay with Escherichia coli TEM; 0.013 µg/mL in assay [2]; below 0.002 µg/mL in the assay on Klebsiella oxytoca 1082E; 0.195 µg/mL in assay [3]; 0.098 µg/mL in [4]; 0.195 µg/mL in assay [5]. Besides, the MIC was found to be 0.391 µg/mL in assay [6]; 0.004 µg/mL with Salmonella typhimurium; 0.049 µg/mL in [7]; 0.049 µg/mL in [8]; 0.098 µg/mL in assay [9]; 0.391 µg/mL in assay [10]. Besides, the minimum inhibitory concentration (MIC) in assay [11] was determined as 0.781 µg/mL; in assay [12] (setting [13]) it was 0.391 µg/mL.

By MIC is commonly meant the lowest concentration found to suppress growth.

Values taken from patent publication US5409933A, “Quinoline derivatives and processes for preparing the same” (priority 1993, dated 1995).
